Tests used:
[1] = target: T1, Glycogen synthase kinase-3 beta (Homo sapiens, UniProt P49841); assay: Inhibition of GSK-3beta (unknown origin)
[2] = target: T1, Glycogen synthase kinase-3 beta; assay: Inhibition of GSK-3beta (unknown origin) incubated for 1 hr by HTRF assay
[3] = target: T1, Glycogen synthase kinase-3 beta; assay: Inhibition of full length GST-tagged human recombinant GSK-3beta (1 to 420 residues) expressed in Escherichia coli
[4] = target: T1, Glycogen synthase kinase-3 beta; assay: Binding affinity to full length GST-tagged human recombinant GSK-3beta (1 to 420 residues) expressed in Escherichia coli assessed as inhibition constant
[5] = target: T1, Glycogen synthase kinase-3 beta; assay: Inhibition of human wildtype full length GSK-3beta
PC-12 = assay: Neuroprotective activity against CORT-induced damage in rat PC-12 cells measured after 24 hrs by MTT assay; assay type: functional, cell-based; conditions: PC-12, 24 h
[6] = target: T1, Glycogen synthase kinase-3 beta; assay: Inhibition of human GSK-3beta

T1 sequence (P49841 whole entry): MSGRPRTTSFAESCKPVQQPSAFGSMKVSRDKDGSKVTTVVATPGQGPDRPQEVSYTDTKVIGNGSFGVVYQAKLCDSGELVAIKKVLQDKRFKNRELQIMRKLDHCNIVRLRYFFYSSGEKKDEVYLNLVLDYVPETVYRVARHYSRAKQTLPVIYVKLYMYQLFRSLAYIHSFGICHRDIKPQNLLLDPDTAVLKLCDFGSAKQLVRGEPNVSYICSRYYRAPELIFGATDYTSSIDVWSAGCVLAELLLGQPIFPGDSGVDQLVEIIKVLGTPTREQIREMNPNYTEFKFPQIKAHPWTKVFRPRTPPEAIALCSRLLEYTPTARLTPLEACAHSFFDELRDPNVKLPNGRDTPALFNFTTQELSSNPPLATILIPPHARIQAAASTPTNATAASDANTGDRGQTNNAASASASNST

O=C(O)C1=CN2C3C(=C(NCCNc4ccccn4)C(F)=CC3C1=O)OCCC21CCC1 (centres undefined)
IC50 [1]: 36 nM

Nc1nc(NCCNc2ncc(-c3ncc[nH]3)c(-c3ccc(Cl)cc3Cl)n2)ccc1[N+](=O)[O-]
IC50 [1]: 0.06 nM

COCCN1CCC(CNC(=O)c2ncc3ccc(-c4cncc(OC(C)C)c4)cn23)CC1
IC50 [2]: 9 nM

Nc1ncc(-c2ccc(S(=O)(=O)N3C=COCC3)cc2)nc1C(=O)Nc1cccnc1
IC50 [3]: 10 nM

COCCNC(=O)c1nc(-c2ccc(S(=O)(=O)N3C=CN(C)CC3)cc2)cnc1N
Ki [4]: 90 nM

COc1ccccc1-c1c2c(nc3[nH]nc(C)c13)CC(C)(C)CC2=O
IC50 [5]: 54 nM

N#C[C@@H](CC1=NN2C(N)=NC(NC3CCCCC3)=NC2N1)C(N)=O (some centres undefined)
EC50 (PC-12): 3 nM

CN1CCN(c2ccc(NCCNc3ccc([N+](=O)[O-])c(N)n3)nc2-c2ccc(Cl)cc2Cl)C(=O)C1
IC50 [1]: 8 nM

CC(/C=C1\SC(=S)N(CC(=O)O)C1=O)=C\c1ccccc1
IC50 [6]: 21 nM
